These results are taken from patent US10758534B2 (Vertex Pharmaceuticals Incorporated, priority 2014, dated 2020).

In one experiment the target is T1, F508del (Homo sapiens, UniProt P13569, DEL508-508).
T1 construct: expressed in transfected cells
T1 sequence (P13569 with tags, fused parts or gaps DEL508-508): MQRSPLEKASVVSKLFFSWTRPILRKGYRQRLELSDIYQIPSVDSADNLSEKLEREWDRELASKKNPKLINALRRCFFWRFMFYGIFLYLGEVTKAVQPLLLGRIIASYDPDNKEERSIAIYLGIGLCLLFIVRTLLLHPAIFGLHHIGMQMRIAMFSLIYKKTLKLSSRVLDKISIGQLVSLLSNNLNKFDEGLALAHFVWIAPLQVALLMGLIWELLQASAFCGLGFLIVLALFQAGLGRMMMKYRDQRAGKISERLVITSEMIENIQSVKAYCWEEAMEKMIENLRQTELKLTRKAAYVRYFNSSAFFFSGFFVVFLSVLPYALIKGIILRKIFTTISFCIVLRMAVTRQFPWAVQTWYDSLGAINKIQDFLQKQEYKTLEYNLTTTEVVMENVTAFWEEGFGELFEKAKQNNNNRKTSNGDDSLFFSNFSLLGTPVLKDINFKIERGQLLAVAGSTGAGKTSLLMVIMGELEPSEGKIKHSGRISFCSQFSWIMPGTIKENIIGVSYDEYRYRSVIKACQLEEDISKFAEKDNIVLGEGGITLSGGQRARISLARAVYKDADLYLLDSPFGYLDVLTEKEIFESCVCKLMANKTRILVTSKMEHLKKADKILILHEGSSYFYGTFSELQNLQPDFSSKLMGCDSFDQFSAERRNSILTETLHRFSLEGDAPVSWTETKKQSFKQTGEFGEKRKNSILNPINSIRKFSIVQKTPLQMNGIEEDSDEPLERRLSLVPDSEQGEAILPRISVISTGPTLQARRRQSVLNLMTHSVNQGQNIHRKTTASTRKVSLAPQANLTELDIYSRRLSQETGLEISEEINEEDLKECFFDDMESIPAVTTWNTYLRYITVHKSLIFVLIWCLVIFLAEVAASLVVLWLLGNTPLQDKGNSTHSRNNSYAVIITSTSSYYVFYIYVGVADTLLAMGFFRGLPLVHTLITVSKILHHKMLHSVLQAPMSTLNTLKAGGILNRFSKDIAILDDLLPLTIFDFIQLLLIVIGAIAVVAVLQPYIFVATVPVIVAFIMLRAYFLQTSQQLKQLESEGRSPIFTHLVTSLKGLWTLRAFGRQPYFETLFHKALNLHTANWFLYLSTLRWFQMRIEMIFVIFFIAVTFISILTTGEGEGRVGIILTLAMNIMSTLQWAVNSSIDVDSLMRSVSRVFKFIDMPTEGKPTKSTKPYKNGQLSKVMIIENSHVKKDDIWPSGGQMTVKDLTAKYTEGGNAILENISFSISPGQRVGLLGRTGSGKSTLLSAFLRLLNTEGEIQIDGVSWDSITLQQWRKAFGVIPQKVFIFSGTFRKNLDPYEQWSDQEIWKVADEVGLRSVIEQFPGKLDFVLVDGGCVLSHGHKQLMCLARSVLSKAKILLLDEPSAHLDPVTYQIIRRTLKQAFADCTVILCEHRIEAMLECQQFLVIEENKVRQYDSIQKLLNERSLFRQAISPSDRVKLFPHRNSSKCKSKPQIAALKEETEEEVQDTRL
The experiment is described as follows: Protocol 2: FRET membrane potential optical assay (VIPR), identification of correction compounds. It counts as cell-based. The conditions noted are these: F508del CFTR modulator activity; compounds of Table 1; read-out: EC30. In short, it runs like this:
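NIH3T3 mouse fibroblasts stably expressing F508del-CFTR incubated with compound 16 h at 37 °C in serum-free medium, then loaded with CC2-DMPE/DiSBAC2(3) FRET dyes. Channel activated with 10 μM forskolin plus 20 μM genistein in Cl⁻-free (gluconate) bath; depolarisation from Cl⁻ efflux read on VIPR II.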
For `CC(C)COc1cc(F)cc(-c2ccc(C(=O)NS(=O)(=O)N3CC4CCC(C3)N4)c(N3C[C@@H](C)CC3(C)C)n2)c1` [Compound 2237, N-(3,8-diazabicyclo[3.2.1]octan-3-ylsulfonyl)-6-(3-fluoro-5-isobutoxy-phenyl)-2-[(4S)-2,2,4-trimethylpyrrolidin-1-yl]pyridine-3-carboxamide], the 30% effect concentration (EC30) (usually the concentration at which the effect reaches the 30% level) is under 3000 nM.

As for `CC1CN(c2ncc(-c3ccc(C4(CO)CC4)cc3)cc2C(=O)NS(=O)(=O)c2cccc(N)n2)C(C)(C)C1` (centres unmarked) [Compound 2112, N-[(6-amino-2-pyridyl)sulfonyl]-5-[4-[1-(hydroxymethyl)cyclopropyl]phenyl]-2-(2,2,4-trimethylpyrrolidin-1-yl)pyridine-3-carboxamide], the EC30 was 3000 to 10000 nM.

In the case of `CCN(CC)c1ccc(Nc2cccc(S(=O)(=O)NC(=O)c3cccnc3N3CC(C)CC3(C)C)n2)cc1` (centres unmarked) [Compound 2531, N—[[6-[4-(diethylamino)anilino]-2-pyridyl]sulfonyl]-2-(2,2,4-trimethylpyrrolidin-1-yl)pyridine-3-carboxamide], the EC30 is under 3000 nM.

As to `COc1ccc(-c2ccc(C(=O)NS(=O)(=O)c3cccnc3N)c(N3C[C@@H](C)CC3(C)C)n2)cn1` [Compound 2244, N-[(2-amino-3-pyridyl)sulfonyl]-6-(6-methoxy-3-pyridyl)-2-[(4S)-2,2,4-trimethylpyrrolidin-1-yl]pyridine-3-carboxamide], the EC30 is under 3000 nM.

In the case of `CC1CN(c2ncccc2C(=O)NS(=O)(=O)c2cccc(N[C@H](C)C(C)C)n2)C(C)(C)C1` (stereo partly drawn) [Compound 2318, N—[[6-[[(1R)-1,2-dimethylpropyl]amino]-2-pyridyl]sulfonyl]-2-(2,2,4-trimethylpyrrolidin-1-yl)pyridine-3-carboxamide], the EC30 was under 3000 nM.

`CC1CN(c2ncc(-c3ccc(C#N)cc3)cc2C(=O)NS(=O)(=O)c2cccc(N)n2)C(C)(C)C1` (centres unmarked) [Compound 2304, N-[(6-amino-2-pyridyl)sulfonyl]-5-(4-cyanophenyl)-2-(2,2,4-trimethylpyrrolidin-1-yl)pyridine-3-carboxamide]: the EC30 was under 3000 nM.

On to `C[C@@H]1CN(c2nc(-c3ccccc3F)ccc2C(=O)NS(=O)(=O)N2CC[C@H](N)C2)C(C)(C)C1` [Compound 2045, N-[(3S)-3-aminopyrrolidin-1-yl]sulfonyl-6-(2-fluorophenyl)-2-[(4S)-2,2,4-trimethylpyrrolidin-1-yl]pyridine-3-carboxamide], for which the EC30 was 3000 to 10000 nM.

Consider `C#Cc1ccc(COc2cccc(S(=O)(=O)NC(=O)c3cccnc3N3CC(C)CC3(C)C)n2)cc1` (centres unmarked) [Compound 2610, N—[[6-[(4-ethynylphenyl)methoxy]-2-pyridyl]sulfonyl]-2-(2,2,4-trimethylpyrrolidin-1-yl)pyridine-3-carboxamide], for which the EC30 was under 3000 nM.

For `CC1CN(c2ncccc2C(=O)NS(=O)(=O)c2cccc(N3CCC(Cc4ccccc4)C3)n2)C(C)(C)C1` (centres unmarked) [Compound 2123, N—[[6-(3-benzylpyrrolidin-1-yl)-2-pyridyl]sulfonyl]-2-(2,2,4-trimethylpyrrolidin-1-yl)pyridine-3-carboxamide], the 30% effect concentration (EC30) was under 3000 nM.

As for `CC(C)COc1cc(F)cc(-c2ccc(C(=O)NS(=O)(=O)N3CC[C@@H](N)C3)c(N3CCCC3(C)Cc3ccccc3)n2)c1` (single isomer, unassigned) [Compound 2325], the EC30 was under 3000 nM.

For the compound `Cc1cc(C(=O)c2ccccc2)cc(C)c1Oc1nc(-c2cc(F)cc(OCC(C)C)c2)ccc1C(=O)NS(=O)(=O)c1cccc(N)n1` [Compound 2669, N-[(6-amino-2-pyridyl)sulfonyl]-2-(4-benzoyl-2,6-dimethyl-phenoxy)-6-(3-fluoro-5-isobutoxy-phenyl)pyridine-3-carboxamide], the EC30 is under 3000 nM.

On to `CC1CN(c2ncccc2C(=O)NS(=O)(=O)c2cccc(OC3CCC(C(C)C)CC3)n2)C(C)(C)C1` (centres unmarked) [Compound 2173, N—[[6-(4-isopropylcyclohexoxy)-2-pyridyl]sulfonyl]-2-(2,2,4-trimethylpyrrolidin-1-yl)pyridine-3-carboxamide], for which the EC30 was under 3000 nM.

Take `Cc1nc(-c2cccc(Oc3cccc(S(=O)(=O)NC(=O)c4cccnc4N4CC(C)CC4(C)C)n3)c2)no1` (centres unmarked) [Compound 2263, N—[[6-[3-(5-methyl-1,2,4-oxadiazol-3-yl)phenoxy]-2-pyridyl]sulfonyl]-2-(2,2,4-trimethylpyrrolidin-1-yl)pyridine-3-carboxamide]: the EC30 was under 3000 nM.

Regarding `COC1CCCN(c2cccc(S(=O)(=O)NC(=O)c3cccnc3N3CC(C)CC3(C)C)n2)C1` (centres unmarked) [Compound 2152, N—[[6-(3-methoxy-1-piperidyl)-2-pyridyl]sulfonyl]-2-(2,2,4-trimethylpyrrolidin-1-yl)pyridine-3-carboxamide], the EC30 was in the range of 3000 to 10000 nM.

The same experiment, now with this note: Table 3; compounds of Table 1 as modulators of CFTR activity; protocol not stated.
Turning to `CC(C)COc1cc(F)cc(-c2ccc(C(=O)NS(=O)(=O)c3cccc(N)n3)c(N3CCC(Cc4ccccc4)C3)n2)c1` (centres unmarked) [Compound 473, N-[(6-amino-2-pyridyl)sulfonyl]-2-(3-benzylpyrrolidin-1-yl)-6-(3-fluoro-5-isobutoxy-phenyl)pyridine-3-carboxamide], the concentration for an effect of 30% (EC30) result is on record as “+++ (“+++” means <3 uM)”.

In the case of `Cc1ccc(-c2nc(C(C)(C)C)ccc2C(=O)NS(=O)(=O)c2ccccn2)cc1` [Compound 407, 6-tert-butyl-2-(p-tolyl)-N-(2-pyridylsulfonyl)pyridine-3-carboxamide], the EC30 entry was “++ (“++” means between 3 uM and 10 uM)”.

For `CC(C)COc1cc(F)cc(-c2ccc(C(=O)NS(=O)(=O)c3ccn[nH]3)c(N3[C@H](C)CC[C@@H]3C)n2)c1` [Compound 415, 2-[(2S,5R)-2,5-dimethylpyrrolidin-1-yl]-6-(3-fluoro-5-isobutoxy-phenyl)-N-(1H-pyrazol-5-ylsulfonyl)pyridine-3-carboxamide], the EC30 entry is “+++ (“+++” means <3 uM)”.

As to `Cc1cc(C)c(Cn2nc(C(C)(C)C)c(C)c2C(=O)NS(=O)(=O)c2cccc(N)n2)c(C)c1` [Compound 356, N-[(6-amino-2-pyridyl)sulfonyl]-5-tert-butyl-4-methyl-2-[(2,4,6-trimethylphenyl)methyl]pyrazole-3-carboxamide], the EC30 result is given as “+++ (“+++” means <3 uM)”.

Take `CC(C)Oc1cc(-c2ccc(C(=O)NS(=O)(=O)c3ccn[nH]3)c(N3[C@H](C)CC[C@@H]3C)n2)ccc1Cl` [Compound 701, 6-(4-chloro-3-isopropoxy-phenyl)-2-[(2S,5R)-2,5-dimethylpyrrolidin-1-yl]-N-(1H-pyrazol-5-ylsulfonyl)pyridine-3-carboxamide]: the EC30 entry is listed as “+++ (“+++” means <3 uM)”.

With `Cc1cc(C)c(Oc2nc(CCc3ccccc3)ccc2C(=O)NS(=O)(=O)c2cccc(N)n2)c(C)c1` [Compound 268, N-[(6-amino-2-pyridyl)sulfonyl]-6-phenethyl-2-(2,4,6-trimethylphenoxy)pyridine-3-carboxamide], the EC30 result is “+++ (“+++” means <3 uM)”.

With `Cc1cc(C)c(Oc2nc(-c3ccc(F)c4c3OCO4)ccc2C(=O)NS(=O)(=O)c2cccc(N)n2)c(C)c1` [Compound 345, N-[(6-amino-2-pyridyl)sulfonyl]-6-(7-fluoro-1,3-benzodioxol-4-yl)-2-(2,4,6-trimethylphenoxy)pyridine-3-carboxamide], the EC30 result is “+++ (“+++” means <3 uM)”.

For the compound `COc1ccccc1CCn1nc(C(C)(C)C)cc1C(=O)NS(=O)(=O)c1ccccc1` [Compound 157, N-(benzenesulfonyl)-5-tert-butyl-2-[2-(2-methoxyphenyl)ethyl]pyrazole-3-carboxamide], the EC30 entry was “++ (“++” means between 3 uM and 10 uM)”.

`Cc1cc(C)c(Oc2nc3ccccc3cc2C(=O)NS(=O)(=O)c2ccccc2)c(C)c1` [Compound 215, N-(benzenesulfonyl)-2-(2,4,6-trimethylphenoxy)quinoline-3-carboxamide]: the EC30 entry is “+++ (“+++” means <3 uM)”.

Take `Cc1cc(C)c(CN2CCc3ccccc3CC2C(=O)NS(=O)(=O)c2ccc[nH]c2=O)c(C)c1` (centres unmarked) [Compound 662, N-[(2-oxo-1H-pyridin-3-yl)sulfonyl]-3-[(2,4,6-trimethylphenyl)methyl]-1,2,4,5-tetrahydro-3-benzazepine-4-carboxamide]: the EC30 result is listed as “+ (“+” means greater than 10 uM)”.

`CC(C)COc1cc(F)cc(-c2ccc(C(=O)NS(=O)(=O)c3cccc(N)n3)c(N3CCCC3C)n2)c1` (centres unmarked) [Compound 479, N-[(6-amino-2-pyridyl)sulfonyl]-6-(3-fluoro-5-isobutoxy-phenyl)-2-(2-methylpyrrolidin-1-yl)pyridine-3-carboxamide]: the EC30 result is reported as “+++ (“+++” means <3 uM)”.

Consider `Cc1cc(C)c(Cn2nc(C(C)(C)C)cc2C(=O)NS(=O)(=O)c2ccccc2)c(C)c1` [Compound 45, N-(benzenesulfonyl)-5-tert-butyl-2-[(2,4,6-trimethylphenyl)methyl]pyrazole-3-carboxamide], for which the EC30 entry is reported as “+++ (“+++” means <3 uM)”.

In the case of `CC(C)Oc1ccc(-c2ccc(C(=O)NS(=O)(=O)c3cccc(N)n3)c(N3CC(c4ccccc4)CC3C)n2)cn1` (centres unmarked) [Compound 502, N-[(6-amino-2-pyridyl)sulfonyl]-6-(6-isopropoxy-3-pyridyl)-2-(2-methyl-4-phenyl-pyrrolidin-1-yl)pyridine-3-carboxamide], the EC30 result was “+++ (“+++” means <3 uM)”.

For the compound `CC1CN(c2nc(-c3ccc(C(C)C)cc3)ccc2C(=O)NS(=O)(=O)c2cccc(N)n2)C(C)(C)C1` (centres unmarked) [Compound 693, N-[(6-amino-2-pyridyl)sulfonyl]-6-(4-isopropylphenyl)-2-(2,2,4-trimethylpyrrolidin-1-yl)pyridine-3-carboxamide], the EC30 result is “+++ (“+++” means <3 uM)”.

As for `Cc1cc(C)c(Oc2nc(-c3cc(F)ccc3F)ccc2C(=O)NS(=O)(=O)c2ccc[nH]c2=O)c(C)c1` [Compound 545, 6-(2,5-difluorophenyl)-N-[(2-oxo-1H-pyridin-3-yl)sulfonyl]-2-(2,4,6-trimethylphenoxy)pyridine-3-carboxamide], the EC30 entry is “++ (“++” means between 3 uM and 10 uM)”.
